# Data taken from patent US20250276996A1, “CATIONICALLY-ENFRAMED HIGH DENSITY AROMATIC PEPTIDES” (Research Foundation of the City University of New York, priority 2022, published 2025).
# “And” between values parts separate entries of the source, which are not always exact repeats. Equal entries are not always repeated. Non-standard residues stand in square brackets, D forms with d. Residues, ends and D or L forms follow the SMILES beside them. *: point of attachment. Biotin = O=C1N[C@H]2[C@H](CS[C@H]2CCCCC(=O)*)N1
# How the values were obtained:
# [1] = NAO fluorescence with POPC liposomes; type: binding
# Procedure: (§1) The resulting multilamellar vesicles were vortexed lightly and sized into small unilamellar vesicles by heated bath sonication for 25 min. All liposomes were cooled to ambient temperature before use.
# Interaction of biotin-HDAP2 Peptide with Phospholipids: The ability of biotin-HDAP2 to displace nonyl acridine orange (NAO), a fluoroprobe known to selectively bind CL was determined. Interaction of biotin-HDAP2 with phospholipids was examined by measuring changes in the fluorescence spectra of 3 μM NAO (Molecular Devices, Sunnyvale, CA)) with excitation at 480 nm. CL and POPC in liposomes were use at 30 μM. Dose response curves were done with 30 μM CL, biotin-HDAP2 (0, 2.5, 5, 10, 20, and 30 μM), and 3 μM of NAO (ex/em at 480 nm/520 nm). All experiments were done in 10 mM Hepes (pH 7.4) to optimize electrostatic interactions of peptides with phospholipids.
# [2] = Nile Red fluorescence shift in POPC liposomes; type: binding
# Procedure: as §1
# Interactions between biotin-HDAP2 and Phospholipid liposomes measured by Nile Red fluorescence: The hydrophobicity of biotin-HDAP2 and phospholipids was examined by changes in the spectral fluorescence shift and intensity of Nile Red (NR, 10 μM). NR increases its intensity of fluorescence when combined with the hydrophobic environments of acyl chains of phospholipids, and produces a blue shift when hydrophobicity is increased. All experiments were done with 30 μM of either CL or POPC and 30 μM of biotin-HDAP2 in 10 mM Hepes (pH 7.4) to optimize the electrostatic interactions of peptides with phospholipids. The solvents used to dissolve the various phospholipids (chloroform, methanol, and ethanol) had negligible effects on the fluorescence spectra.
# MDBK cells [3] = assay: Cell survival in serum-free media (AlamarBlue); type: cell-based, bovine
# Procedure: Serum starvation experiments: Biotin-HDAP2's ability to improve cell viability and function following serum starvation was assessed. For all experiments, MDBK cells were seeded in 35 mm cell culture dishes (5×10^4 cells) in DMEM medium with 10% FBS (Fetal Bovine Serum) for 24 hrs and then incubated in serum-free medium with or without biotin-HDAP2 (1 μM) for 5 days to induce cell death. For quantitative measurements, wells were washed to remove dead cells, and then stained with AlamarBlue for 60 min. Quantitative analysis of dye conversion was measured using a fluorescent plate reader (550 ex/580 em) and cell viability was expressed as folds change (increase or decrease) over scrum-starved untreated cells.
# Effects of peptides on cell survival in serum-free media: Cell survival in serum starvation conditions was studied in the presence and absence of biotin-HDAP2 using MDBK cells. Cells were plated at a density of 1-2×10^5 cells/well in 96 well plates in DMEM/10% FBS media. The following day, cells were washed and the medium replaced with DMEM serum-free media in the presence or absence of different concentrations of biotin-HDAP2 and incubated for 5 days. Cell viability was assessed using the Resaruzin (Alamar blue) indicator dye. Quantitative analysis of dye conversion was measured using a fluorescent plate reader (ex/em=550/580 nm) and viability was expressed as fold increase over of untreated cells.
# MDBK cells [4] = assay: Mitochondrial membrane potential in serum-starved cells (MitoTracker Red); type: cell-based, bovine
# Procedure: (§2) MDBK cells incubated in serum free media for 5-7 days in the presence or absence of 1 μM of biotin-HDAP2. At the end of the incubation period 100 nM MitoTracker was added to the cells and incubated for 15 minutes. Then, media was removed and cells were fixed in 4% PFA. Cells were then visualized using a fluorescent microscope (Nikon Eclipse-ci-SRS). Experiments were conducted 5 times in triplicate for each experimental condition.
# To measure the effects of biotin-HDAP2 on the mitochondrial potential and cellular oxidative stress, cells were cultured in DMEM/F12 without fetal bovine serum (FSB) in the presence or absence of biotin-HDAP2 (1 μM). After 3 days, nuclei were labeled with Hoechst 33342 (10 μg/ml) and cells were incubated for 15 minutes at 37° C. with MTR (100 nM) to evaluate the strength of the mitochondrial potential or were incubated with the general oxidative stress indicator CM-H2DCFDA (5 μM, Invitrogen, Carlsbad, CA) for 15 min at 37° C. In each instance, cells were imaged immediately after staining and prior to fixation.
# Unless otherwise noted, data for all tissue culture experiments were collected from three independent trials, with each experiment done in triplicate. For each experiment, 4-6 fields of cells were randomly selected and imaged using a Nikon Eclipse 50i fluorescent microscope with a 40X immersion objective (NA 0.8) and using filters specific for either green or red wavelengths as appropriate (ex488 nm/ex515-540 nm). Photooxidation of the indicator dyes were minimized by using single exposures to the fluorescence for each field imaged. Fluorescence intensity was analyzed using ImageJ (NIH), and MTR and CM-H2DCFDA fluorescence were normalized to Hoechst fluorescence to account for differences in cell number in each field. Differences among groups were compared by Student's t-test and P values less than 0.05 were considered significant. All data are expressed as means±SEM.
# MDBK cells [5] = assay: Cellular oxidative stress in serum-starved cells (CM-H2DCFDA); type: cell-based, bovine; settings: 1 μM
# Procedure: as §2, with “period,” for “period”, “CM-H2DCFDA (oxidative stress marker)” for “MitoTracker”, “30” for “15”
# To measure the effects of biotin-HDAP2 on the mitochondrial potential and cellular oxidative stress, cells were cultured in DMEM/F12 without fetal bovine serum (FSB) in the presence or absence of biotin-HDAP2 (1 μM). […]
# Unless otherwise noted, data for all tissue culture experiments were collected from three independent trials, with each experiment done in triplicate. […] Photooxidation of the indicator dyes were minimized by using single exposures to the fluorescence for each field imaged. Fluorescence intensity was analyzed using ImageJ (NIH), and MTR and CM-H2DCFDA fluorescence were normalized to Hoechst fluorescence to account for differences in cell number in each field. […] All data are expressed as means±SEM.
# ARPE-19 cells = assay: Restoration of mitochondrial membrane potential after 3 days of serum starvation (TMRM); type: cell-based; settings: 2 hours incubation after 3 days of serum starvation
# Excerpt: Serum starvation for 3 days reduced mitochondrial membrane potential in serum-free controls (SFC), compared to regular cells grown on serum (FBS). […] Error bars represent SEM (n=5) ***P<0.001.
# HK-2 cells = assay: PCNA expression in serum-starved cells; type: cell-based; settings: serum starved for 3 days
# Excerpt: FIG. 18B are representative images of HK-2 cells serum starved for 3 days in the presence or absence of biotin-HDAP2 (SEQ ID NO: 1), HDAP4 (SEQ ID NO: 13), and biotin-HDAP6 (SEQ ID NO: 10) and then tested for the expression of Proliferating Cell Nuclear Antigen (PCNA) (bottom row), a positive marker for cell proliferation. The Hoechst 33342 probe (Hc) was used to label the nucleus to determine cellular localization (top row).
# mice = settings: 3 mg/kg daily for 14 days or biweekly for two months
compound,measurement,setting,value
"N=C(N)NCCC[C@@H](NC(=O)[C@H](Cc1ccccc1)NC(=O)[C@H](Cc1ccccc1)NC(=O)[C@@H](CCCNC(=N)N)NC(=O)CCCC[C@@H]1SC[C@@H]2NC(=O)N[C@@H]21)C(N)=O [biotin-HDAP2, Biotin-dArg-Phe-Phe-dArg-NH2] (Biotin-[dR]FF[dR]-NH2)",effect on interaction between NAO and POPC liposomes,[1],did not interfere with the interaction between NAO and the POPC liposomes
same,Nile Red shift,[2],no shift could be detected
same,AlamarBlue fluorescence / protection during serum starvation,"MDBK cells [3]; 1 μM, 5 days serum starvation",increased AlamarBlue fluorescence
same,increase in cell survival compared to untreated controls,"MDBK cells [3]; 1 μM, serum-free 5 days, AlamarBlue",50%
same,EC50,"MDBK cells [3]; serum-free, 5 days, AlamarBlue, read-out: EC50, cell survival in serum-free conditions",~100 nM and 100 nM
same,mitochondria membrane potential in starved cells,"MDBK cells [4]; 1 μM, serum free 5-7 days, 100 nM MitoTracker",improved mitochondria membrane potential in starved cells
same,increase of MitoTracker Red CMXRos fluorescence intensity vs untreated controls,"MDBK cells [4]; 1 μM, serum starvation",over 2.5 times
same,increase of mitochondrial membrane potential compared to serum-free control,"MDBK cells [4]; 1 μM, serum-free 3-4 days",150%
same,improvement of mitochondrial potential,MDBK cells [4]; FIG. 10D,2.5 fold
same,oxidative stress in starved cells,"MDBK cells [5]; serum free 5-7 days, 100 nM CM-H2DCFDA",prevented oxidative stress in starved cells
same,reduction in CM-H2DCFDA fluorescence compared to control,MDBK cells [5]; serum-free,> 80% and 80%
same,restoration of mitochondrial membrane potential,ARPE-19 cells,restored mitochondrial membrane potential within 2 hours
same,expression of PCNA and cell proliferation,HK-2 cells,increase proliferation expression of PCNA and cell proliferation during serum starvation
same,toxicity in mice,mice,no adverse effects
same,water solubility,Water solubility,water soluble
